From patent US20100221763A1, “Specific Acceptors for Transferases to Saccharides and Method for Obtaining and Using Same” (Health Research, Inc, priority 2005, published 2010)

Legend:
[1] = system: β-GlcNAc:β1,4Gal-T of breast tumor BC9400; test: β-GlcNAc:β1,4Gal-T assay, breast tumor extract; type: biochemical, human; settings: other acceptors, 1 mg protein of the tissue extract
Description: (§1) Colon tumor tissue (CC9338) and breast tumor tissue (BC9400) were obtained during surgical procedures at Roswell Park Cancer Institute and stored frozen within 1 h at −70° C. The tissues were homogenized at 4° C. with 4 volumes of 0.1M Tris Maleate […] 0.1% NaN3 using kinematica. After adjusting the concentration of Triton X-100 to 2%, these homogenates were mixed in the cold room for 1 h using Speci-Mix (Thermolyne) and then centrifuged at 20,000 g for 1 h at 4° C. The clear fat-free supernatant was stored frozen at −20° C. until use. Aliquots of 10 μL from this extract were used in assays run in duplicates. Glycosyltransferase activity in cell lysate was determined by mixing the lysates with acceptor and radiolabeled donor (monosaccharide) under the reaction conditions detailed below, followed by separation of un-reacted donor from the radioactive product using anionic or hydrophobic chromatography. In all cases, the radioactive content of isolated products was determined by using 3a70 scintillation cocktail (Research Products International, Mount Prospect, Ill.) and a Beckman LS6500 scintillation counter. Controls for each assay contained the reaction mixture with everything except the acceptor. All assays were run in duplicate.
(§2) The acceptors used for measuring the glycosyltransferase and sulfotransferase activities are given in Table I. The following are the conditions for individual enzymatic assays. Reaction temperature in all cases was 37° C. α2,3- and α2,6 sialytransferase (ST) assay reactions proceeded for 2 h in a mixture containing 100 mM sodium cacodylate buffer (pH 6.0), 7.5 mM acceptor, CMP-[9-^3H]NeuAc (typically 0.2 μCi) and 10 μl cell extract in a total volume of 20 μl [Chandrasekaran et al., 1995]. βGlcNAc:β1,4Gal-T and αGalNAc:β1,3Gal-T assay mixtures in duplicate contained 0.1M Hepes-NaOH pH 7.0, 7 mM ATP, 20 mM Mn acetate, 1 mM UDP-Gal, UDP [^14C]Gal (0.05 μCi; 327mCi/mmol; Amersham), 0.5 mM acceptor (unless otherwise stated) and the enzyme in a total volume of 20 μL. It was incubated for 4 h [Chandrasekaran et al., 2001]. βGlcNAc:β1,4GalNAc-T assay mixtures in duplicate contained 0.1M Hepes-NaOH pH 7.0, 7 mM ATP, 20 mM Mn acetate. UDP [^3H] GalNAc (0.20 μCi; 7.8 Ci/mmol: New England Nuclear Corp.) 7.5 mM acceptor (unless otherwise stated) and the enzyme in a total volume of 20 μL and incubated for 4 h [Chandrasekaran et al., 2001].
(§3) Dowex-1-C1 or Sep-Pak C18 cartridges were used to isolate radiolabeled product from the reaction mixture. For GalT, GalNAc-T and FT assays, the incubation mixture was diluted with 1 ml water and passed through a 1 ml Dowex-1-C1 column [Chandrasekaran et al., 1996; Chandrasekaran et al., 2001]. The column was washed twice with 1 ml of water. The breakthrough and the water wash contained the [^14C]-galactosylated or [^14C]-fucosylated products formed with neutral acceptors. 3 ml of 0.1M NaCl was used to obtain [^14C]-fucosylated products from sialylated acceptors after water elution. For sialytransferase assays, the radioactive products from benzylglycosides were separated by hydrophobic chromatography on Sep-Pak C18 cartridge (Waters, Milford, Mass.), and elution of the product was done with 3 ml methanol [Palcic et al., 1988]. For sulfotransferase assays, elution of the [^35S]-sulfated compound from Dowex-1-C1 column was achieved by 3 ml of 0.2M NaCl [Chandrasekaran et al., 2004].

[2] = target: T1, FTVI of colon tumor CC9338 (Homo sapiens, UniProt P51993); test: FTVI assay, colon tumor extract; type: biochemical; settings: 1 mg protein of the tissue extract
T1 construct: from tissue; host or cells: colon tumor tissue CC9338, Triton X-100 extract
T1 sequence (P51993 whole entry): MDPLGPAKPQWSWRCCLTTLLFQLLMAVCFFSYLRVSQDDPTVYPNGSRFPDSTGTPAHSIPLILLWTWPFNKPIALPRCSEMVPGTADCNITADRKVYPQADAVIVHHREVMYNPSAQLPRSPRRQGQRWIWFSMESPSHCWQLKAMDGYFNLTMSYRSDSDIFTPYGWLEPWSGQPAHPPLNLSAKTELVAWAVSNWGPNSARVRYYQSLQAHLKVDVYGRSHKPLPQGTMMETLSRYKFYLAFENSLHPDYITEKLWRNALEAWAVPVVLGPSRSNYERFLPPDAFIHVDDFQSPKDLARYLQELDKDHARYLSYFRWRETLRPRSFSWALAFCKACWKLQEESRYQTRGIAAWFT
Description: as §1, with “duplicate. […]” for “duplicate.”

[3] = system: β-GlcNAc:β1,4Gal-T of colon tumor CC9338; test: β-GlcNAc:β1,4Gal-T assay, colon tumor extract; type: biochemical, human; settings: other acceptors, 1 mg protein of the tissue extract
Description: as §1, §2, §3

[4] = target: T2, FTVI of breast tumor BC9400 (Homo sapiens, UniProt P51993); test: FTVI assay, breast tumor extract; type: biochemical; settings: 1 mg protein of the tissue extract
T2 construct: from tissue; host or cells: breast tumor tissue BC9400, Triton X-100 extract
T2 sequence (P51993 whole entry): as above
Description: as §1, with “duplicate. […]” for “duplicate.”

[5] = system: β-GlcNAc:β1,4GalNAc-T of breast tumor BC9400; test: β-GlcNAc:β1,4GalNAc-T assay, breast tumor extract; type: biochemical, human; settings: other acceptors, 1 mg protein of the tissue extract
Description: as §1, §2, §3

[6] = system: β-GlcNAc:β1,4GalNAc-T of colon tumor CC9338; test: β-GlcNAc:β1,4GalNAc-T assay, colon tumor extract; type: biochemical, human; settings: other acceptors, 1 mg protein of the tissue extract
Description: as §1, §2, §3

- FTVI activity: incorporation of radioactive sugar [2]: 139.1 CPM × 10^−3
- FTVI activity: incorporation of radioactive sugar [4]: 0.3 CPM × 10^−3
SMILES: CC(=O)N[C@H]1[C@H](OCc2ccccc2)O[C@H](CO)[C@@H](O[C@@H]2O[C@H](CO)[C@@H](O)[C@H](O)[C@H]2NC(C)=O)[C@@H]1O [GlcNAcβ1,4GlcNAcβ-O-Bn]
- a) β-GlcNAc:β1,4Gal-T activity: incorporation of radioactive sugar [1]: 436.7 CPM × 10^−3
- a) β-GlcNAc:β1,4Gal-T activity: incorporation of radioactive sugar [3]: 307.6 CPM × 10^−3
- b) β-GlcNAc:β1,4GalNAc-T activity: incorporation of radioactive sugar [5]: 57.8 CPM × 10^−3
- b) β-GlcNAc:β1,4GalNAc-T activity: incorporation of radioactive sugar [6]: 18.9 CPM × 10^−3
